# Assay results published in patent publication US8765786B2, “1-substituted indazole derivative” (Dainippon Sumitomo Pharma Co., Ltd., priority 2012, dated 2014).
# Molecular target: T1, human α7 nAChR (Homo sapiens, UniProt P36544)
# T1 construct: expressed in transfected cells; host or cells: GH4C1 cells derived from rat pituitary (ATCC CCL-82.2)
# Assay: Evaluation of PAM activity with human α7 nACh receptor stably expressing cells (aequorin luminescence, FDSS7000)
# Assay type: cell-based
# Settings: for α7PAM (%) @ 10 μmol/L / activity at 10 µM: test compound 10 μmol/L, ACh added at EC20, ratio of RLU (Max-Min) of test wells to control wells; for activity at 10 µM: read-out: α7PAM (%) @ 10 μmol/L
# Description: Human α7 nAChR stably expressing cells were generated and cultured. In detail, GH4C1 cells derived from rat pituitary (cat#CCL-82.2, ATCC, USA) were used as a host cell. PcDNA3.1Zeo vector containing a nucleotide sequence encoding a protein GenBank BAC81731 and pcDNA3.1 vector containing human α7 nAChR gene (cat#V790-20, invitrogen, Carlsbad, Calif., USA) were transfected to the cells to give aequorins and human α7 nAChR stably expressing cells respectively. The aequorins and human α7 nAChR stably expressing cells were screened with Zeocin (cat#R25001, invitrogen, Carlsbad, Calif., USA) and Geneticin (cat #10131-027, invitrogen, Carlsbad, Calif., USA) respectively.
# The cells were cultured in F-10 Nutrient Mixture (Ham) medium (cat #11550-043, invitrogen, Carlsbad, Calif., USA) containing 2.5% fetal bovine serum (cat #2917354, ICN Biomedicals, Inc, USA), 15% inactivated horse serum (cat #26050-088, invitrogen, Carlsbad, Calif., USA), 1 μg/mL Geneticin, and 5 μg/mL Puromycin (cat #14861-84, invitrogen, Carlsbad, Calif., USA), in a Collagen Type 1-coated dish (cat #4030-010, iwaki, Tokyo, Japan). During the culture, the medium was replaced with fresh medium in every 2 to 3 days, and the cells were treated with TrypLE Express (cat #45604-021, invitrogen, Carlsbad, Calif., USA) to collect them in every 7 days. Thus, the cells were subcultured.
# 7 Days after subculturing, the cells were treated with TrypLE Express to collect them when they were about 80% confluent. The cells were suspended in a reaction medium containing Hanks (cat #14065-056, invitrogen, Carlsbad, Calif., USA)/20 mmol/L Hepes (cat #15630-080, invitrogen, Carlsbad, Calif., USA), Buffer (pH 7.4), F-10 Nutrient Mixture (Ham), and 0.1 mg/mL Geneticin, and the suspension was seeded in a 384-well plate (cat #781090, Greiner, Germany) at 20000 cells/25 μL per well.
# On the next day after seeding, Viviren (cat#E649X, Promega, Madison, Wis., USA) was added to the medium so that the final concentration could be 4 μmol/L (15 μL/well). The plates were centrifuged and then placed in the dark for 4 hours at room temperature.
# Each of the test compounds was dissolved in DMSO to prepare each test sample at a concentration of 1000-fold the final concentration. To the solution was added Hanks/20 mM HEPES/0.2% BSA (cat#A3803, Sigma, St. Louis, Mo., USA), and the concentration was adjusted to 6-fold the final concentration.
# FDSS7000 (Hamamatsu Photonics) was used to detect the luminescence signal evoked by α7 nAChR stimulation. The cells and a luminescent substrate were put on a plate, and the test sample was added thereto. […] After the addition of ACh, the luminescence signal (the central wavelength: 465 nm) was measured for 138 seconds to calculate RLU (Max-Min). The ratio of the RLU (Max-Min) of the test-compound-containing wells to that of the control wells was defined as PAM activity.
# T1 sequence (P36544 23-502): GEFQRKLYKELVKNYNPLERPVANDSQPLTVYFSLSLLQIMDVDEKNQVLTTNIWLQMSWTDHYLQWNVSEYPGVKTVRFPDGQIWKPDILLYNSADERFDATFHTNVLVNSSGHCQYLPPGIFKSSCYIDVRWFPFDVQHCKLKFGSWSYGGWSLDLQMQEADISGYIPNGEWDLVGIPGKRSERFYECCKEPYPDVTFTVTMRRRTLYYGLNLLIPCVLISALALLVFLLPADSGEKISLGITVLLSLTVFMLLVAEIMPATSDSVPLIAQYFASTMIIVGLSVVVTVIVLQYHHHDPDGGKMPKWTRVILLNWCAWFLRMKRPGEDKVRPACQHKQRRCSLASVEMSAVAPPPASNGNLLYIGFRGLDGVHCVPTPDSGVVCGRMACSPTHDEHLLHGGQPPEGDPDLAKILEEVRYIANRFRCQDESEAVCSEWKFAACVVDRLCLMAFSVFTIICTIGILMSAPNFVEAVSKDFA
Structure (SMILES),α7PAM (%) @ 10 μmol/L,further results
Cc1cccc2c1cnn2C1CCN(C(=O)NC2CCC(OC(F)F)CC2)CC1 (stereo not shown) [Example 97],117%,–
COc1ccc2c(cnn2C2CCN(C(=O)NC3CCCCC3(F)F)CC2)c1 (stereo not shown) [Example 86],1481%,–
[2H]C([2H])([2H])Oc1ccc2c(cnn2C2CCN(C(=O)NC3CCCCC3)CC2)c1 [Example 324],1352%,–
O=C(Nc1ccc(C(F)(F)F)nc1)N1CCC(n2ncc3cc(C4CC4)ccc32)CC1 [Example 187],220%,–
CO[C@H]1CC[C@H](NC(=O)N2CCC(n3ncc4cc(-c5ccc(F)cc5)ccc43)CC2)CC1 [Example 155],210%,–
O=C(C1CCOCC1)N1CCC(n2ncc3cc(F)ccc32)CC1 [Example 104],190%,–
CCCc1ccc2c(cnn2C2CCN(C(=O)NC3CCC(OC)CC3)CC2)c1 (stereo not shown) [Example 76],420%,–
COc1nn(C2CCN(C(=O)N[C@H]3CC[C@H](OC)CC3)CC2)c2ccc(C)cc12 [Example 147],181%,–
N#Cc1ccc2c(cnn2C2CCN(C(=O)NC3CCC(F)(F)CC3)CC2)c1 [Example 198],268%,–
O=C(NC1CCCCC1)N1CCC(n2ncc3ccccc32)CC1 [Example 39],1892%,–
O=C(NC1CCC(F)(F)CC1)N1CCC(n2ncc3cc(C4CC4)ccc32)CC1 [Example 77],1780%,–
CCOc1ccc2c(cnn2C2CCN(C(=O)N[C@H]3CC[C@H](OC)CC3)CC2)c1 [Example 30],908%,–
O=C(NC1CCC(F)(F)CC1)N1CCC(n2ncc3ccccc32)CC1 [Example 38],1101%,–
CCc1nn(C2CCN(C(=O)NC3CCC(F)(F)CC3)CC2)c2ccc(OC)cc12 [Example 241],358%,–
COCC1CCC(NC(=O)N2CCC(n3ncc4cc(F)ccc43)CC2)CC1 (stereo not shown) [Example 236],331%,–
CCOc1nn(C2CCN(C(=O)NC3CCCCC3)CC2)c2ccc(CC)cc12 [Example 60],846%,–
CCc1ccc2c(cnn2[C@H]2CC[C@@H](NC(=O)[C@H]3CC[C@@H](OC)CC3)CC2)c1 [Example 124],1230%,–
COc1c(Br)ccc2c1cnn2C1CCN(C(=O)NC2CCC(F)(F)CC2)CC1 [Example 284],1109%,–
COCc1cccc2c1cnn2C1CCN(C(=O)NC2CCC(F)(F)CC2)CC1 [Example 166],711%,–

Structure (SMILES),α7PAM (%) @ 10 μmol/L,further results
CCc1nn(C2CCN(C(=O)NC3CCC(F)(F)CC3)CC2)c2ccccc12 [Example 53],309%,–
O=C(NC1CCOCC1)N1CCC(n2ncc3cc(Br)ccc32)CC1 [Example 65],385%,–
CCc1ccc2c(c1)c(OC)nn2C1CCN(C(=O)NC2CCC(F)(F)CC2)CC1 [Example 149],1053%,–
CCOc1ccc2c(cnn2C2CCN(C(=O)c3ccc(F)cn3)CC2)c1 [Example 114],189%,–
COCCCc1ccc2c(cnn2C2CCN(C(=O)N[C@H]3CC[C@H](OC)CC3)CC2)c1 [Example 32],430%,–
CCc1ccc2c(c1)c(OC(F)F)nn2C1CCN(C(=O)NC2CCOCC2)CC1 [Example 209],266%,–
O=C(NC1CCOCC1)N1CCC(n2ncc3cc(OC(F)F)ccc32)CC1 [Example 292],413%,–
"O=C(NC1CCCC1)N1CCC(n2ncc3cc(Cl)ccc32)CC1 [Example 33, 4-(5-chloro-1H-indazol-1-yl)-N-cyclopentylpiperidine-1-carboxamide]",–,activity at 10 µM: 430%
CCN(C(=O)N1CCC(n2ncc3ccccc32)CC1)C1CCC(OC)CC1 (stereo not shown) [Example 51],295%,–
O=C(NC1CCC1)N1CCC(n2ncc3cc(OC(F)(F)F)ccc32)CC1 [Example 299],302%,–
COc1ccc2c(cnn2C2CCN(C(=O)NC3CCCC3(F)F)CC2)c1 (stereo not shown) [Example 88],1063%,–
CC(C)Oc1cccc2c1cnn2C1CCN(C(=O)NC2CCCCC2)CC1 [Example 180],274%,–
"CCc1nn(C2CCN(C(=O)NC3CCC(F)(F)CC3)CC2)c2ccc(C)cc12 [Example 42, N-(4,4-difluorocyclohexyl)-4-(3-ethyl-5-methyl-1H-indazol-1-yl)piperidine-1-carboxamide]",–,activity at 10 µM: 241%
CCOC1CCC(NC(=O)N2CCC(n3ncc4c(C)cccc43)CC2)CC1 (stereo not shown) [Example 96],143%,–
CCc1ccc2c(cnn2C2CCN(C(=O)c3ccc(F)cn3)CC2)c1 [Example 118],188%,–
O=C(NC1CCCCC1)N1CCC(n2ncc3cc(C4CC4)ccc32)CC1 [Example 199],1497%,–
COc1ccc2c(cnn2C2CCN(C(=O)N[C@H]3CC[C@H](OC)CC3)CC2)c1OC [Example 306],147%,–
CCc1c(OC)ccc2c1cnn2C1CCN(C(=O)NC2CCC(F)(F)CC2)CC1 [Example 287],645%,–
CCOc1nn(C2CCN(C(=O)NC3CCC(OC)CC3)CC2)c2ccc(CC)cc12 (stereo not shown) [Example 57],382%,–

Structure (SMILES),α7PAM (%) @ 10 μmol/L,further results
COc1c(C(F)(F)F)ccc2c1cnn2C1CCN(C(=O)NC2CCC(OC)CC2)CC1 (stereo not shown) [Example 317],360%,–
COCc1nn(C2CCN(C(=O)NC3CCCCC3)CC2)c2ccc(C)cc12 [Example 68],430%,–
CCO[C@H]1CC[C@H](NC(=O)N2CCC(n3ncc4c(C5CC5)cccc43)CC2)CC1 [Example 44],322%,–
CCc1ccc2c(cnn2C2CCN(C(=O)C3CCOCC3)CC2)c1 [Example 111],410%,–
COCc1c(C2CC2)ccc2c1cnn2C1CCN(C(=O)N[C@H]2CC[C@H](OC)CC2)CC1 [Example 216],271%,–
CCc1ccc2c(cnn2[C@H]2CC[C@@H](NC(=O)C3CCCCC3)CC2)c1 [Example 119],2154%,"PAM activity for α7 nAChR (result in words, ratio of RLU (Max-Min) to control wells, ACh EC20): stronger PAM activity than others"
CCOc1ccc2c(cnn2C2CCN(C(=O)NC3CCC(COC)CC3)CC2)c1 (stereo not shown) [Example 234],824%,–
COC(C)c1c(C)ccc2c1cnn2C1CCN(C(=O)N[C@H]2CC[C@H](OC)CC2)CC1 (stereo partly shown) [Example 233],307%,–
O=C(C1CCC(F)(F)CC1)N1CCC(n2ncc3ccccc32)CC1 [Example 137],328%,–
COc1cccc2c1cnn2C1CCN(C(=O)NC2CCC(F)(F)CC2)CC1 [Example 182],742%,–
CCc1ccc2c(cnn2[C@H]2CC[C@@H](NC(=O)C3CCCC3)CC2)c1 [Example 123],1445%,–
COc1ccc2c(cnn2C2CCN(C(=O)N[C@@H]3CCCCC3(F)F)CC2)c1 [Example 85],1081%,–
COC(C)c1ccc2c(cnn2C2CCN(C(=O)N[C@H]3CC[C@H](OC)CC3)CC2)c1 (stereo partly shown) [Example 245],182%,–
COC(C)c1cccc2c1cnn2C1CCN(C(=O)NC2CCC(F)(F)CC2)CC1 (stereo not shown) [Example 231],647%,–
CCc1ccc2c(cnn2[C@H]2CC[C@@H](C(=O)NC3CCCCC3)CC2)c1 [Example 127],806%,–
"CCc1ccc2c(cnn2[C@H]2CC[C@@H](C(=O)NC3CCC(F)(F)CC3)CC2)c1 [Example 6, cis-N-(4,4-difluorocyclohexyl)-4-(5-ethyl-1H-indazol-1-yl)cyclohexanecarboxamide]",–,activity at 10 µM: 285%
CCc1ccc2c(cnn2[C@H]2CC[C@@H](NC(=O)[C@H]3CC[C@H](OC)CC3)CC2)c1 [Example 122],410%,–
CCc1ccc2c(c1)c(OC)nn2C1CCN(C(=O)NC2CCCCC2)CC1 [Example 151],746%,–
Cc1cccc2c1cnn2C1CCN(C(=O)NC2CCC(F)(F)CC2)CC1 [Example 93],934%,–
